Data as given in patent US5468486A, “Vaccine containing a protein alkaloid conjugate for the treatment of fescue toxicosis” (priority 1994, dated 1995).

System: antiserum produced against the ergonovine KLH conjugate
Assay: Competitive ELISA
Assay type: binding, rabbit
Conditions: for Concentration (ng/ml) of 50% A (A50) / IC50: predicted value for 50% maximal absorbance, linear regression, antiserum 1:1000, HSA-ergonovine coated plates; for IC50: read-out: Concentration (μM) of 50% A; for Cross Reactivity (%): relative to ergonovine
Description: Antiserum preparation: Three female New Zealand white rabbits were immunized with the HSA-ergonovine conjugate and two with the KLH-ergonovine conjugate. Initially, each rabbit was injected with 1 mg of the respective conjugate in 1 ml of phosphate buffered saline that had been emulsified with an equal amount of Freund's complete adjuvant. Booster injections of 0.2 mg of conjugate per rabbit, emulsified with Freund's incomplete adjuvant, were given at 5 and 10 weeks after the first injections. The rabbits were bled 8 and 16 days after each booster injection. Serum was collected after two cycles of low speed centrifugation. Serum from each rabbit was pooled before testing in the competitive enzyme linked immunosorbent assay (ELISA).
Competitive ELISA: Duplicate polystyrene ELISA plates were numbered and rinsed once with distilled water. The HSA-ergonovine conjugate [[…] in carbonate coating buffer (0.5μsodium carbonate, pH 9.6)] was pipetted into each well ([…]). After 2H at 30° C. the plates were washed 4 times quickly with physiologically buffered saline (PBS) Tween (0.02M phosphate, 0.15M NaCl, 3 mM KC1+0.05% TWEEN 20, pH 7.3). All subsequent rinse steps were done with PBS-Tween. Serial dilutions were made of […] compounds used in the competitive assay. All dilutions were made in PBS-Tween. These compounds and their initial concentrations were: agroclavine 0.5 mM, ergocryptine at 100 μM, unconjugated ergonovine at 1 μM, ergotamine at 100 μM, ergovaline at 10 μM, lysergol at 10 mM, dihydroergotamine at 200 μM and IAA at 1 mM. After placing 100 μl of each dilution in duplicate wells, an additional 100 μl of antiserum, produced against the ergonovine KLH conjugate, was added to each well at a dilution of 1:1000 and mixed. The plates were incubated for 2 H at 30° C. and again rinsed 4 times quickly. Protein-A alkaline phosphatase (0.5 μg/ml in PBS-Tween) was placed in wells (200 μl/well) and incubated for 2 H at 30° C. The plates were again rinsed 4 times. Substrate, SIGMA 104® phosphatase substrate (5 mg/ml), in 10% diethanolamine, pH 9.6 was added to each well (150 μl/well). The reaction was stopped after 30 min. with 3M NaOH (75 μl/well). The plates were read on a DYNATECH MINIREADER II® reader. Mean values were calculated from duplicate wells per plate and duplicate plates were averaged. From these values a percent maximal absorbance level was calculated.

C[C@@H](CO)NC(=O)[C@@H]1C=C2c3cccc4[nH]cc(c34)C[C@H]2N(C)C1 [ergonovine]
Concentration (ng/ml) of 50% A (A50): 1.6 ng/mL | IC50: 0.05 µM | Cross Reactivity (%): 100%

CC1=C[C@@H]2c3cccc4[nH]cc(c34)C[C@H]2N(C)C1 [agroclavine]
IC50: 3.2 µM

CN1C[C@H](C(=O)N[C@]2(C)O[C@@]3(O)[C@@H]4CCCN4C(=O)[C@H](Cc4ccccc4)N3C2=O)C=C2c3cccc4[nH]cc(c34)C[C@H]21 [ergotamine]
IC50: 0.4 µM

CC(C)C[C@H]1C(=O)N2CCC[C@H]2[C@]2(O)O[C@](NC(=O)[C@@H]3C=C4c5cccc6[nH]cc(c56)C[C@H]4N(C)C3)(C(C)C)C(=O)N12 [ergocryptine]
Concentration (ng/ml) of 50% A (A50): 33 ng/mL | Concentration (ng/ml) of 50% A (A50) (listed as ergocrytine): below 100 ng/ml | IC50: 0.59 µM | Cross Reactivity (%): 5% | Cross Reactivity (%) (listed as ergocrytine): ≥ 2%

CN1C[C@H](CO)C=C2c3cccc4[nH]cc(c34)C[C@H]21 [lysergol]
Concentration (ng/ml) of 50% A (A50): 940 ng/mL | IC50: 3.7 µM | Cross Reactivity (%): 4% | Cross Reactivity (%) (listed as Lysergol): less than 1%

CC(C)[C@H]1C(=O)N2CCC[C@H]2[C@]2(O)O[C@@](C)(NC(=O)[C@@H]3C=C4c5cccc6[nH]cc(c56)C[C@H]4N(C)C3)C(=O)N12 [ergovaline]
Concentration (ng/ml) of 50% A (A50): 8 ng/mL | Concentration (ng/ml) of 50% A (A50) (listed as Ergovaline): below 100 ng/ml | IC50: 0.15 µM | Cross Reactivity (%): 20% | Cross Reactivity (%) (listed as Ergovaline): ≥ 2%

CN1C[C@H](C(=O)N[C@]2(C)O[C@@]3(O)[C@@H]4CCCN4C(=O)[C@H](Cc4ccccc4)N3C2=O)C[C@@H]2c3cccc4[nH]cc(c34)C[C@H]21 [dihydroergotamine]
Concentration (ng/ml) of 50% A (A50): 6833 ng/mL
